Measurements: ChEMBL document CHEMBL1201862, “PubChem BioAssay data set” (2004)
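Test compounds were applied to cells in 96-well plates for 48 hours at 5 doses. At the GI50, growth is halved.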 The source made the active and inactive calls. Rule as the data show it: active = GI50 up to about 1.1 µM and inactive = higher.

Legend:
Assay in all cases: growth of human tumour cells (NCI), 48 h
NCI-H23 = system: NCI-H23
NCI/ADR-RES = system: NCI/ADR-RES
ACHN = system: ACHN
SK-MEL-5 = system: SK-MEL-5
RXF 393 = system: RXF 393
HOP-62 = system: HOP-62
MOLT-4 = system: MOLT-4
IGROV-1 = system: IGROV-1
NCI-H522 = system: NCI-H522
SR = system: SR
SK-MEL-28 = system: SK-MEL-28
T47D = system: T47D
MDA-MB-231 = system: MDA-MB-231
RPMI-8226 = system: RPMI-8226
SF-268 = system: SF-268
K562 = system: K562
MCF7 = system: MCF7
SK-MEL-2 = system: SK-MEL-2
HL-60 = system: HL-60
TK-10 = system: TK-10
HOP-92 = system: HOP-92
UO-31 = system: UO-31
Hs-578T = system: Hs-578T
U-251 = system: U-251
COLO 205 = system: COLO 205
OVCAR-4 = system: OVCAR-4
MDA-N = system: MDA-N
A549 = system: A549
SK-OV-3 = system: SK-OV-3
KM12 = system: KM12
MDA-MB-435 = system: MDA-MB-435
SN12C = system: SN12C
SNB-75 = system: SNB-75
HT-29 = system: HT-29
UACC-257 = system: UACC-257
HCT-15 = system: HCT-15
OVCAR-3 = system: OVCAR-3
PC-3 = system: PC-3
EKVX = system: EKVX
SF-539 = system: SF-539
A498 = system: A498
DU-145 = system: DU-145
SF-295 = system: SF-295
SNB-19 = system: SNB-19
Malme-3M = system: Malme-3M
CAKI-1 = system: CAKI-1
HCT-116 = system: HCT-116
BT-549 = system: BT-549
M14 = system: M14
LOX IMVI = system: LOX IMVI
CCRF-CEM = system: CCRF-CEM
NCI-H226 = system: NCI-H226
OVCAR-8 = system: OVCAR-8
NCI-H460 = system: NCI-H460
OVCAR-5 = system: OVCAR-5
UACC-62 = system: UACC-62
SW-620 = system: SW-620
786-0 = system: 786-0

SMILES: O/N=C\c1cc(O)c(O)c(/C=N/O)c1
- GI50 (NCI-H23): 71 µM (inactive)
- GI50 (NCI/ADR-RES): 32 µM (inactive)
- GI50 (ACHN): 24.2 µM (inactive)
- GI50 (SK-MEL-5): 33.2 µM (inactive)
- GI50 (RXF 393): 25.6 µM (inactive)
- GI50 (HOP-62): 29.4 µM (inactive)
- GI50 (MOLT-4): 21.4 µM (inactive)
- GI50 (IGROV-1): 41.4 µM (inactive)
- GI50 (NCI-H522): 8.73 µM (inactive)
- GI50 (SR): 11 µM (inactive)
- GI50 (SK-MEL-28): > 100 µM (inactive)
- GI50 (T47D): 36.1 µM (inactive)
- GI50 (MDA-MB-231): 56.5 µM (inactive)
- GI50 (RPMI-8226): 11.8 µM (inactive)
- GI50 (SF-268): 15.2 µM (inactive)
- GI50 (K562): 36 µM (inactive)
- GI50 (MCF7): 35.5 µM (inactive)
- GI50 (SK-MEL-2): 67.9 µM (inactive)
- GI50 (HL-60): 14.1 µM (inactive)
- GI50 (TK-10): 63.4 µM (inactive)
- GI50 (HOP-92): 49.9 µM (inactive)
- GI50 (UO-31): 16 µM (inactive)
- GI50 (Hs-578T): 23.9 µM (inactive)
- GI50 (U-251): 39 µM (inactive)
- GI50 (COLO 205): 34.4 µM (inactive)
- GI50 (OVCAR-4): 52 µM (inactive)
- GI50 (MDA-N): 47.9 µM (inactive)
- GI50 (A549): 25.2 µM (inactive)
- GI50 (SK-OV-3): 33.7 µM (inactive)
- GI50 (KM12): 38.4 µM (inactive)
- GI50 (MDA-MB-435): 38.8 µM (inactive)
- GI50 (SN12C): 27.2 µM (inactive)
- GI50 (SNB-75): > 100 µM (inactive)
- GI50 (HT-29): 59.3 µM (inactive)
- GI50 (UACC-257): > 100 µM (inactive)
- GI50 (HCT-15): 34.9 µM
- GI50 (OVCAR-3): 20.6 µM (inactive)
- GI50 (PC-3): 33.3 µM (inactive)
- GI50 (EKVX): 34.8 µM (inactive)
- GI50 (SF-539): 34.4 µM (inactive)
- GI50 (A498): 69.3 µM (inactive)
- GI50 (DU-145): 31.6 µM (inactive)
- GI50 (SF-295): 55.1 µM (inactive)
- GI50 (SNB-19): 89.5 µM (inactive)
- GI50 (Malme-3M): > 100 µM (inactive)
- GI50 (CAKI-1): 28.6 µM (inactive)
- GI50 (HCT-116): 33.8 µM (inactive)
- GI50 (BT-549): 79.1 µM (inactive)
- GI50 (M14): 27.5 µM (inactive)
- GI50 (LOX IMVI): 47.8 µM (inactive)
- GI50 (CCRF-CEM): 7.66 µM (inactive)
- GI50 (NCI-H226): 32.9 µM (inactive)
- GI50 (OVCAR-8): 29 µM (inactive)
- GI50 (NCI-H460): 27.9 µM (inactive)
- GI50 (OVCAR-5): 96.2 µM (inactive)
- GI50 (UACC-62): 38.5 µM (inactive)
- GI50 (SW-620): 39.9 µM (inactive)

SMILES: CN(C)C1C(O)=C(C(=O)NCN2CCCC2)C(=O)C2(O)C(O)=C3C(=O)c4c(O)cccc4C(C)(O)C3CC12 (stereo not drawn)
- GI50 (NCI-H23): 63.5 µM (inactive)
- GI50 (NCI/ADR-RES): > 100 µM (inactive)
- GI50 (ACHN): > 100 µM (inactive)
- GI50 (786-0): > 100 µM (inactive)
- GI50 (SK-MEL-5): > 100 µM (inactive)
- GI50 (RXF 393): > 100 µM (inactive)
- GI50 (HOP-62): > 100 µM (inactive)
- GI50 (MOLT-4): 40 µM (inactive)
- GI50 (IGROV-1): > 100 µM (inactive)
- GI50 (NCI-H522): > 100 µM (inactive)
- GI50 (SR): > 100 µM (inactive)
- GI50 (SK-MEL-28): > 100 µM (inactive)
- GI50 (T47D): > 100 µM (inactive)
- GI50 (MDA-MB-231): 29.2 µM (inactive)
- GI50 (RPMI-8226): > 100 µM (inactive)
- GI50 (SF-268): > 100 µM (inactive)
- GI50 (K562): 57 µM (inactive)
- GI50 (MCF7): 54.6 µM (inactive)
- GI50 (SK-MEL-2): > 100 µM (inactive)
- GI50 (HL-60): > 100 µM (inactive)
- GI50 (TK-10): 60.7 µM (inactive)
- GI50 (HOP-92): > 100 µM (inactive)
- GI50 (UO-31): > 100 µM (inactive)
- GI50 (Hs-578T): > 100 µM (inactive)
- GI50 (U-251): 88.9 µM (inactive)
- GI50 (COLO 205): > 100 µM (inactive)
- GI50 (OVCAR-4): > 100 µM (inactive)
- GI50 (MDA-N): > 100 µM (inactive)
- GI50 (A549): 69.3 µM (inactive)
- GI50 (SK-OV-3): > 100 µM (inactive)
- GI50 (KM12): > 100 µM (inactive)
- GI50 (MDA-MB-435): 34.5 µM (inactive)
- GI50 (SN12C): > 100 µM (inactive)
- GI50 (SNB-75): 52.4 µM (inactive)
- GI50 (HT-29): > 100 µM (inactive)
- GI50 (UACC-257): 69.2 µM (inactive)
- GI50 (HCT-15): > 100 µM
- GI50 (OVCAR-3): > 100 µM (inactive)
- GI50 (PC-3): > 100 µM (inactive)
- GI50 (EKVX): > 100 µM (inactive)
- GI50 (A498): > 100 µM (inactive)
- GI50 (DU-145): 62.2 µM (inactive)
- GI50 (SF-295): > 100 µM (inactive)
- GI50 (SNB-19): > 100 µM (inactive)
- GI50 (Malme-3M): 25.6 µM (inactive)
- GI50 (CAKI-1): > 100 µM (inactive)
- GI50 (HCT-116): > 100 µM (inactive)
- GI50 (BT-549): > 100 µM (inactive)
- GI50 (M14): 77.3 µM (inactive)
- GI50 (LOX IMVI): > 100 µM (inactive)
- GI50 (CCRF-CEM): 59 µM (inactive)
- GI50 (NCI-H226): > 100 µM (inactive)
- GI50 (OVCAR-8): > 100 µM (inactive)
- GI50 (OVCAR-5): > 100 µM (inactive)
- GI50 (UACC-62): > 100 µM (inactive)
- GI50 (SW-620): > 100 µM (inactive)
